Experimental data as given in article PMC8835475, “Salviolone from Salvia miltiorrhiza Roots Impairs Cell Cycle Progression, Colony Formation, and Metalloproteinase-2 Activity in A375 Melanoma Cells: Involvement of P21(Cip1/Waf1) Expression and STAT3 Phosphorylation” (International Journal of Molecular Sciences, 2022).

How the values were obtained:
[1] = system: normal human epithelial melanocyte (NHEM) cell line; experiment: SRB cell viability assay in NHEM cells; format: cell-based; conditions: for effect on NHEM viability: 10–20 µM; for reduction of NHEM viability: 40–60 µM
Description: Human MeWo (HTB-65) and A375 (CRL-1619) melanoma cell lines as well as the normal human epidermal melanocyte (NHEM) (PCS-200-013) cell line (ATCC, Manassas, VA, USA) were cultured at 37 °C under 5% CO2 in a humidified atmosphere. Roswell Park Memorial Institute 1640 medium (RPMI, Gibco, Ref.21875, Thermo Scientific, Waltham, MA, USA) was used to culture MeWo cells, while Dulbecco’s Modified Eagle Medium (DMEM, Gibco, Ref. 61965, Thermo Scientific, Waltham, MA, USA) was used for A375 and NHEM cell lines. The culture media were supplemented with 10% fetal bovine serum (FBS, Gibco, Thermo Scientific, Waltham, MA, USA) plus 1% Antibiotic Antimycotic Solution (Gibco, Thermo Scientific). The MEK1 inhibitor U0126 (CAY-70970) and the PI3K inhibitor LY294002 (CAY-70920) were provided by Cayman Chemical, Ann Arbor, MI, USA.
Melanoma MeWo and A375 cells or NHEM were seeded in 96-well plates (5.0 × 10^3 cells/well for MeWo cells and 2.9 × 10^3 cells/well for A375 or NHEM). After 24-h culture, the cells were treated with different concentrations of compounds 1–7. After 72-h treatment, the cells were fixed by adding 25 µL/well of 50% (w/v) TCA directly into the culture medium. The plates were incubated at 4 °C for 1 h, washed four times with ddH2O, and dried at RT. Staining was performed by adding 50 µL/well of 0.04% (w/v) sulforhodamine B (SRB) sodium salt solution (Sigma-Aldrich, Milan, Italy). After 1-h incubation at RT, the plates were rinsed with 1% HAc and air-dried. SRB was solubilized in a 10 mM Tris-base solution pH 10.5 and Abs492 measured in the plate reader TECAN NanoQuant Infinite M200 Pro (Tecan Group Ltd., Männedorf, Switzerland). Six replicates for each condition/data point were performed.

[2] = system: A375 melanoma cells; experiment: Soft agar colony formation assay; format: cell-based, human; conditions: A375, 5 and 10 µM, 21-day culture
Description: Before seeding, 6-well plates were prepared with soft agar, as follows: the bottom layer was filled with 1% low-gelling temperature agarose and 2X DMEM, supplemented with 20% FBS and 2% Antibiotic Antimycotic Solution (Gibco, BRL Invitrogen Corp., Carlsbad, CA, USA). After 30 min, cells (5000 cell/well) were suspended in 0.6% agarose and 2X DMEM supplemented with 20% FBS and 2% Antibiotic Antimycotic Solution (Gibco, BRL Invitrogen Corp., Carlsbad, CA, USA) and placed over the 0.5% agarose layer. Then, either cryptotanshinone (4) or salviolone (7) at 5–10 μM was added directly into each well and 100 μL of fresh media was added twice a week for 3 weeks. The semi-solid cultures were performed in triplicate and images captured.

[3] = system: pSer15-P53 (pP53); experiment: Immunoblot of pSer15-P53 in A375 cells; format: cell-based, human; conditions: A375, 20 µM, vs untreated
Description: (§1) A375 cells were seeded in 6 cm Petri dishes (190 300 cell/dish) and treated with different compounds at 10 or 20 μM. After 48- or 72-h treatment, the cells were scraped using warm 1× sample buffer (2% SDS, 10% glycerol, 50 mM Tris-HCl, 1.75% β-mercaptoethanol, and bromophenol blue) and boiled at 99 °C for 10 min. Total protein extracts were kept at −80 °C until use.
(§2) Protein extracts were analyzed with a 7.5 or 10% polyacrylamide SDS-PAGE and transferred to a polyvinylidene difluoride membrane (PVDF, Thermo Fisher Scientific, Waltham, MA, USA). The membranes were blocked at RT for 1 h with TBST buffer (10 mM Tris-HCl pH 7.5, 100 mM NaCl, 0.1% Tween20) containing 4% Milk (Formulat). […] Immuno-detection was carried out with an ECL kit (GE-Healthcare, Little Chalfont, UK), and the chemiluminescence signals were detected with ChemiDoc (Bio-Rad, Hercules, CA, USA).

[4] = system: pERK1/2; experiment: Immunoblot of pERK1/2 in A375 cells; format: cell-based, human; conditions: A375, 20 µM, 72 h; declined in control
Description: as §1
Protein extracts were analyzed with a 7.5 or 10% polyacrylamide SDS-PAGE and transferred to a polyvinylidene difluoride membrane (PVDF, Thermo Fisher Scientific, Waltham, MA, USA). The membranes were blocked at RT for 1 h with TBST buffer (10 mM Tris-HCl pH 7.5, 100 mM NaCl, 0.1% Tween20) containing 4% Milk (Formulat). Then, they were incubated on a shaker, overnight (ON) at 4 °C, with 5% BSA solution containing primary antibodies against p-Tyr705-STAT3 (#9145, 1:1000), pRb (#8516, 1:2000), pERK (#4370, 1:1000), pAkt (#4060, 1:2000), pSer15-P53 (#9286, 1:2000) (Cell Signaling Technology, Danvers, […], USA), Akt (GTX121937, 1:3000), ERK (GTX134452, 1:6000), Cyclin A2 (GTX-103042, 1:3000), p-Thr160Cdk2 (GTX-133862, 1:3000), p21 (GTX-629543, 1:3000) (Genetex, Alton Pkwj Irvine, CA, USA), p53 (Sc-263, 1:1000), STAT3 (Sc-482, 1:1000), and p-Ser727-STAT3 (Sc-136193, 1:1000) (Santa Cruz Biotechnology, Dallas, TX, USA). The membranes were washed three times with TBST buffer for 30 min and then incubated for 1 h with a horseradish-peroxidase-conjugated secondary antibody (anti-rabbit 1:6000, Genetex), (anti-mouse, 1:4000, Cell Signaling Technology, Danvers, […], USA). They were washed another three times for 30 min with TBST buffer. All protein extracts were normalized with a β-actin protein antibody (GTX-124214, 1:10,000; Genetex, Alton Pkwj Irvine, CA, USA). Immuno-detection was carried out with an ECL kit (GE-Healthcare, Little Chalfont, UK), and the chemiluminescence signals were detected with ChemiDoc (Bio-Rad, Hercules, CA, USA).

[5] = system: Akt; experiment: Immunoblot of total Akt in A375 cells; format: cell-based, human; conditions: A375, 20 µM, 48 and 72 h
Description: as §1, §2

[6] = system: A375 cells; experiment: Wound closure cell migration assay; format: cell-based, human; conditions: A375, 20 µM, vs controls
Description: The wound healing assay is widely used to measure cell migration. The method is based on quantifying the rate at which cells can close an artificial scratch created in a confluent cell monolayer. A375 cells were seeded in 12-well plates (120 × 10^3 cells/well) and, once confluence was reached, the monolayer was scratched with a sterile 10 μL pipette tip. […] Then, either cryptotanshinone (4) or salviolone (7) at 10 or 20 µM was added to the culture. After 0-, 8-, 24- and 30-h culture, images were captured with Zeiss Axio Vert. (Zeiss, Milan, Italy) to measure the delay to repopulate the scratch in comparison with the non-treated control sample.

C[C@H]1COC2=C1C(=O)C(=O)c1c2ccc2c1CCCC2(C)C [Compound 4, cryptotanshinone]
effect on NHEM viability [1]: did not affect
reduction of NHEM viability [1]: 20%
number and dimension of colonies formed on soft agar [2]: decreased
pSer15-P53 (pP53) expression / P53 phosphorylation level [3]: no significant increase
pERK1/2 expression level [4]: remained high
expression level of Akt total protein [5]: not changed
A375 cell migration rate / wound healing closure [6]: slow down

Cc1cc2ccc3c(c2cc(O)c1=O)CCCC3(C)C [Compound 7, salviolone]
effect on NHEM viability [1]: did not affect
reduction of NHEM viability [1]: 20%
number and dimension of colonies formed on soft agar [2]: decreased
pSer15-P53 (pP53) expression / P53 phosphorylation level [3]: higher
pERK1/2 expression level [4]: remained high
expression level of Akt total protein [5]: not changed
A375 cell migration rate / wound healing closure [6]: did not significantly delay
